Results: publication PMC11211886 (Frontiers in Pharmacology, 2024)

Experiments:
CYP1A2 mRNA = test: in vitro; details: human; for fold induction at 48 h, 50 µM: Gene expression Fold Induction
Description: (§1) […] […] […] Enzyme activity for each CYP isoform was reported as a fold change over vehicle control and the percent of positive control (detailed calculation in Supplementary 1.1). Hepatocytes were harvested with a lysis buffer from RNeasy 96 Kit (Qiagen Inc., Germantown, MD, USA) to isolate RNA, which was analyzed by real-time quantitative polymerase chain reaction (RT-PCR). […] Emax (the maximal observed induction) and EC50 (the concentration that supports half-maximal induction) were estimated by non-linear regression of fold increase in CYP mRNA expression versus concentration plots.
(§2) % of positive control = [(fold change in treated sample)-1] / [(fold change in positive control)-1] × 100
(§3) Based on the gene expression, a minimum of 4-fold increase of positive control compared to vehicle control, a minimum of 2-fold increase of the test article compared vehicle control and increased in a concentration-dependent manner was considered as the cutoff for a positive signal in in vitro induction assay.

CYP1A2 = test: in vitro; details: human; for fold induction at 48 h, 50 µM: Enzyme activity Fold Induction
Description: as §1
The fold of vehicle control and the percent of positive control were calculated with the formulas below:
Fold of vehicle control = CYPs activity of test compound (or positive control) treated sample / CYPs activity of vehicle control treated sample
as §2
Based on the enzyme activity, a minimum of 2-fold increase compared to vehicle control for the positive control and ≥40% of the positive control for the test article was considered as the cutoff for a positive signal in in vitro induction assay.

CYP2B6 mRNA = test: CYP induction in human hepatocytes, CYP2B6 mRNA (RT-PCR); details: human five, Gene expression Fold Induction, CYP2B6, donor seven, 1000 µM
Description: as §1, §2, §3

OATP1B1 = target: T1, OATP1B1 (Homo sapiens, UniProt Q9Y6L6); test: OATP1B1 inhibition, β-estradiol 17-(β-D-glucuronide) uptake in transfected HEK293 cells
T1 sequence (Q9Y6L6 1-691): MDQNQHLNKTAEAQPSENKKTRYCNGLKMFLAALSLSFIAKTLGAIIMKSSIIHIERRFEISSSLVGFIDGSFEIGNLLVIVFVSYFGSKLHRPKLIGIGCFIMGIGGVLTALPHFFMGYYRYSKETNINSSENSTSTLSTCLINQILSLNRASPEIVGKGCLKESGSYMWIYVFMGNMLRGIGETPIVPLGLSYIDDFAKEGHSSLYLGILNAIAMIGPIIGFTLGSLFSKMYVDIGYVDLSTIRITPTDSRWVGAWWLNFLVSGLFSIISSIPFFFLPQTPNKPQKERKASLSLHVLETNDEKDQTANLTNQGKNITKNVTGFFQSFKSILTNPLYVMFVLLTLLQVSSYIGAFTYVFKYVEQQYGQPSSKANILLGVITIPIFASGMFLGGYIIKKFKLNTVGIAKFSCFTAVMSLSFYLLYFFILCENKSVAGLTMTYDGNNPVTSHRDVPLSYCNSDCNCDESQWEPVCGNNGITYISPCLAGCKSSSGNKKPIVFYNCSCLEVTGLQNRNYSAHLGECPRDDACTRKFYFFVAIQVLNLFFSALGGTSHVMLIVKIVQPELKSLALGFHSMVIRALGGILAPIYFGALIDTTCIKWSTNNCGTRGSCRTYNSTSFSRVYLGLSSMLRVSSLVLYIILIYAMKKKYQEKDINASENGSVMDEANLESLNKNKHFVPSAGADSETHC
Description: (§4) The pre-incubation solutions were removed, and incubation solutions containing the inhibitors and probe substrates (or transport buffer containing an equal volume of vehicle control and probe substrates) were added and incubated at 37°C for 2 min (5 min for OATP1B3). The probe substrate for OAT1 was 4-aminohippuric acid (10 μM), for OAT3 was estrone 3-sulfate (10 μM), for OCT2 was metformin (100 μM), for OATP1B1 was β-estradiol 17-(β-D-glucuronide) (5 μM), for OATP1B3 was β-estradiol 17-(β-D-glucuronide) (10 μM), and for MATE1 and MATE2-K was tetraethylammonium (10 μM). After incubation, cells were washed three times with ice-cold transport buffer (25 mM HEPES, pH 7.4, pH 8.0 for overexpressing MATE1 and MATE2-K HEK293 cells) and lysed in distilled water. The concentrations of probe substrates were determined by LC-MS/MS, and a BCA Kit (Solarbio ®Life Sciences, Beijing, China) was used to determine the protein content in the cell lysate.
(§5) where C is the concentration of the drug in the cell lysate (nM), P is the protein concentration of the cell lysate (mg/mL), and T is the incubation time (minute). Uptake ratetest compound is the uptake rate of the substrate in the presence of the test compound. Uptake ratevehicle control is the uptake rate of the substrate in the presence of the vehicle control. Uptake ratepassive is the uptake rate of the substrate in the presence of the positive inhibitor at the top test concentration.

OATP1B3 = target: T2, OATP1B3 (Homo sapiens, UniProt Q9NPD5); test: OATP1B3 inhibition, β-estradiol 17-(β-D-glucuronide) uptake in transfected HEK293 cells
T2 sequence (Q9NPD5 1-702): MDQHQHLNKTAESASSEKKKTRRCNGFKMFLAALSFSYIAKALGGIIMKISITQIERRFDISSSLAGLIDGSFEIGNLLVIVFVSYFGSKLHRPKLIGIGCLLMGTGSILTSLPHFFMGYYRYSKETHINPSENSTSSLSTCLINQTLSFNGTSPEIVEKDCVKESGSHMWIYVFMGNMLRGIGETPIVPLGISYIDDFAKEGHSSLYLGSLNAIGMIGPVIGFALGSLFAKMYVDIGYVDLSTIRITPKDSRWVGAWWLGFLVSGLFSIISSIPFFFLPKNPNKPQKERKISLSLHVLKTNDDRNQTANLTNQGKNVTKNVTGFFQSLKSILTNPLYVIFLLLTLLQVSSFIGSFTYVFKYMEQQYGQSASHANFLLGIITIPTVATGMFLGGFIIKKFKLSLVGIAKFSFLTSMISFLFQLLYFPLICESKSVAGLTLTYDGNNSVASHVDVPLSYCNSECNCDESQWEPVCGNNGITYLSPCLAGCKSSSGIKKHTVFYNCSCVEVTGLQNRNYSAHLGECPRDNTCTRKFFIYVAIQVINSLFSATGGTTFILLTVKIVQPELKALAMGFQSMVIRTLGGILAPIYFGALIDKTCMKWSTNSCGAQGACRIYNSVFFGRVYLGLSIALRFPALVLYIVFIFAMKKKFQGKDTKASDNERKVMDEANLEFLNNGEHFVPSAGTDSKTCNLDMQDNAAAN
Description: as §4, §5

[1] = ref FDA, 2021; cited from earlier work
[2] = clinical trials; ref FDA, 2014; FDA, 2017, 2018, 2021; cited from earlier work
[3] = among marketed PI3Kδ inhibitors; ref FDA, 2014; FDA, 2017, 2018, 2021; cited from earlier work

**Q.** What does the source list for `COc1ccc2[nH]c([S+]([O-])Cc3ncc(C)c(OC)c3C)nc2c1` (centres unmarked) [Omeprazole]?
**A.** Gene expression Fold Induction (CYP1A2 mRNA; female, 48 h, 50 µM): 25.5 fold; fold induction at 48 h, 50 µM (CYP1A2 mRNA; female): 15.6; fold induction at 48 h, 50 µM (CYP1A2 mRNA; male): 20.3; Enzyme activity Fold Induction (CYP1A2; female, 48 h, 50 µM): 3.37 fold; fold induction at 48 h, 50 µM (CYP1A2; female): 4.95; fold induction at 48 h, 50 µM (CYP1A2; male): 5.22

**Q.** Which fold induction at 48 h, 1000 µM (CYP2B6 mRNA) does the source give for `CCC1(c2ccccc2)C(=O)NC(=O)NC1=O` [Phenobarbital] here?
**A.** 9.45

**Q.** For `CO[C@H]1/C=C/O[C@@]2(C)Oc3c(C)c(O)c4c(O)c(c(/C=N/N5CCN(C)CC5)c(O)c4c3C2=O)NC(=O)/C(C)=C\C=C\[C@H](C)[C@H](O)[C@@H](C)[C@@H](O)[C@@H](C)[C@H](OC(C)=O)[C@@H]1C` [Rifampicin, reference compound], which IC50 (OATP1B1) is on record?
**A.** 866 nM

**Q.** And the Percentage transported (OATP1B1; human, 2 min, 10 μM, pH 7.4)?
**A.** 0.00%

**Q.** And the Uptake rate (OATP1B1; human, 2 min, 10 μM, pH 7.4)?
**A.** 3.03±0.536 pmol/mg protein/min

**Q.** What about the IC50 (OATP1B3) of the same compound?
**A.** 611 nM

**Q.** What about the Percentage transported (OATP1B3; human, 5 min, 10 μM, pH 7.4) of the same compound?
**A.** 0.00%

**Q.** And the Uptake rate (OATP1B3; human, 5 min, 10 μM, pH 7.4)?
**A.** 4.46±0.829 pmol/mg protein/min

**Q.** And the inhibition at 5 min, 10 µM (OATP1B3; human, pH 7.4)?
**A.** 100%

**Q.** For `CC(C)Oc1ccc(-c2nn([C@@H](C)c3oc4ccc(F)cc4c(=O)c3-c3cccc(F)c3)c3ncnc(N)c23)cc1F` [umbralisib, Umbralisib], which “exposure in the intestines versus plasma” value [1] is on record?
**A.** 100 fold

**Q.** What about the “incidence of ≥Grade 3 GI toxicity, including diarrhea and colitis” value [2] of the same compound?
**A.** higher than 10%

**Q.** And the Vz/F in human [3]?
**A.** highest Vz/F among these drugs
